Source: ChEMBL document CHEMBL1155747, “Cytotoxic diacetylenes from the stony coral Montipora species” (2001)
Values after ≈ are worked out from the molar mass of the structure shown.

Legend:
Format in all cases: functional
A549 = test: Cytotoxicity against human A549 cells; settings: read-out: ED50 (the source's name)
SK-OV-3 = test: Cytotoxicity against human SKOV3 cells; settings: read-out: ED50 (the source's name)
SK-MEL-2 = test: Cytotoxicity against human SK-MEL-2 cells; settings: read-out: ED50 (the source's name)
XF498 = test: Cytotoxicity against human XF498 cells; settings: read-out: ED50 (the source's name)
HCT-15 = test: Cytotoxicity against human HCT15 cells; settings: read-out: ED50 (the source's name)
HCT-116 = test: Inhibition of cell cycle in human HCT116 cells assessed as increase in apoptotic fraction at 100 ug/mL after 24 hrs by flow cytometry; set-up: scale not given: the % may be the effect or the level left

C=CCCCCCCCC#CC#CCOCC(=O)[O-].[Na+]
EC50 (A549): 6.26 µg/mL | EC50 (SK-OV-3): 4.88 µg/mL | EC50 (SK-MEL-2): 4.68 µg/mL | EC50 (XF498): 4.96 µg/mL | EC50 (HCT-15): 4.47 µg/mL

CCCCCCCC#CC#CCOCC(=O)OC [METHYLMONTIPORATE A]
EC50 (A549): > 30 µg/mL | EC50 (SK-OV-3): 20.5 µg/mL (≈ 82 µM) | EC50 (SK-MEL-2): > 30 µg/mL | EC50 (XF498): > 30 µg/mL | EC50 (HCT-15): 25.6 µg/mL (≈ 102 µM)

C=CCCCCCC#CC#CCO [MONTIPORYNE G]
EC50 (A549): 13.8 µg/mL (≈ 78.2 µM) | EC50 (SK-OV-3): 9.79 µg/mL (≈ 55.5 µM) | EC50 (SK-MEL-2): 9.56 µg/mL (≈ 54.2 µM) | EC50 (XF498): 10.8 µg/mL (≈ 61.2 µM) | EC50 (HCT-15): 12.9 µg/mL (≈ 73.4 µM)

C=CCCCCCCCC#CC#CC(O)CC(C)=O (racemic) [MONTIPORYNE K]
EC50 (A549): 4.91 µg/mL (≈ 18.9 µM) | EC50 (SK-OV-3): 3.34 µg/mL (≈ 12.8 µM) | EC50 (SK-MEL-2): 3.52 µg/mL (≈ 13.5 µM) | EC50 (XF498): 4.45 µg/mL (≈ 17.1 µM) | EC50 (HCT-15): 4.18 µg/mL (≈ 16.1 µM)

CCCCCCCC#CC#CCOCC(=O)[O-].[Na+] [MONTIPORIC ACID A SODIUM SALT]
EC50 (A549): 6.31 µg/mL | EC50 (SK-OV-3): 7.5 µg/mL | EC50 (SK-MEL-2): 7.97 µg/mL | EC50 (XF498): 7.72 µg/mL | EC50 (HCT-15): 8.3 µg/mL

C=CCCCCCC#CC#C/C=C/C(C)=O
EC50 (A549): 6.39 µg/mL (≈ 29.8 µM) | EC50 (SK-OV-3): 3.52 µg/mL (≈ 16.4 µM) | EC50 (SK-MEL-2): 4.21 µg/mL (≈ 19.6 µM) | EC50 (XF498): 5.5 µg/mL (≈ 25.7 µM) | EC50 (HCT-15): 4.56 µg/mL (≈ 21.3 µM)

C=CCCCCCC#CC#CCOCCO [MONTIPORYNE H]
EC50 (A549): 22.7 µg/mL (≈ 103 µM) | EC50 (SK-OV-3): 17.9 µg/mL (≈ 81.4 µM) | EC50 (SK-MEL-2): 25.1 µg/mL (≈ 114 µM) | EC50 (XF498): 16.9 µg/mL (≈ 76.6 µM) | EC50 (HCT-15): 24.1 µg/mL (≈ 109 µM)

CCCCCCCC#CC#C/C=C/C(C)=O [MONTIPORYNE A]
Activity (HCT-116): 19%

C=CCCCCCC#CC#CC(O)CC(C)=O (racemic)
EC50 (A549): 4.97 µg/mL (≈ 21.4 µM) | EC50 (SK-OV-3): 3.85 µg/mL (≈ 16.6 µM) | EC50 (SK-MEL-2): 3.74 µg/mL (≈ 16.1 µM) | EC50 (XF498): 3.87 µg/mL (≈ 16.7 µM) | EC50 (HCT-15): 3.42 µg/mL (≈ 14.7 µM)

C=CCCCCCC#CC#CCOCC(=O)[O-].[Na+] [MONTIPORIC AICD C]
EC50 (A549): > 30 µg/mL | EC50 (SK-OV-3): > 30 µg/mL | EC50 (SK-MEL-2): > 30 µg/mL | EC50 (XF498): > 30 µg/mL | EC50 (HCT-15): > 30 µg/mL

C=CCCCCCC#CC#C/C=C\C(C)=O
EC50 (A549): > 30 µg/mL | EC50 (SK-OV-3): 5.23 µg/mL (≈ 24.4 µM) | EC50 (SK-MEL-2): 4.61 µg/mL (≈ 21.5 µM) | EC50 (XF498): 29.2 µg/mL (≈ 136 µM) | EC50 (HCT-15): 11.3 µg/mL (≈ 52.7 µM)

C=CCCCCCCCC#CC#CCO
EC50 (A549): 3.9 µg/mL (≈ 19.1 µM) | EC50 (SK-OV-3): 3.23 µg/mL (≈ 15.8 µM) | EC50 (SK-MEL-2): 3.94 µg/mL (≈ 19.3 µM) | EC50 (XF498): 5.26 µg/mL (≈ 25.7 µM) | EC50 (HCT-15): 3.32 µg/mL (≈ 16.2 µM)

C=CCCCCCCCC#CC#CCOCC(=O)OC [METHYLMONTIPORATE B]
EC50 (A549): > 30 µg/mL | EC50 (SK-OV-3): > 30 µg/mL | EC50 (SK-MEL-2): > 30 µg/mL | EC50 (XF498): > 30 µg/mL | EC50 (HCT-15): > 30 µg/mL

CCCCCCCC#CC#CCO
EC50 (A549): 5.48 µg/mL (≈ 30.7 µM) | EC50 (SK-OV-3): 4.63 µg/mL (≈ 26 µM) | EC50 (SK-MEL-2): 4.45 µg/mL (≈ 25 µM) | EC50 (XF498): 5.59 µg/mL (≈ 31.4 µM) | EC50 (HCT-15): 5.9 µg/mL (≈ 33.1 µM)

CCCCCCCC#CC#CC(O)CC(C)=O (racemic) [MONTIPORYNE I]
EC50 (A549): 4.17 µg/mL (≈ 17.8 µM) | EC50 (SK-OV-3): 1.81 µg/mL (≈ 7.72 µM) | EC50 (SK-MEL-2): 1.4 µg/mL (≈ 5.97 µM) | EC50 (XF498): 3.7 µg/mL (≈ 15.8 µM) | EC50 (HCT-15): 3.73 µg/mL (≈ 15.9 µM)

COc1cccc2c1C(=O)c1c(O)c3c(c(O)c1C2=O)C[C@@](O)(C(=O)CO)C[C@@H]3O[C@H]1C[C@H](N)[C@H](O)[C@H](C)O1 [DOXORUBICIN]
EC50 (A549): 0.02 µg/mL (≈ 0.0368 µM) | EC50 (SK-OV-3): 0.13 µg/mL (≈ 0.239 µM) | EC50 (SK-MEL-2): 0.03 µg/mL (≈ 0.0552 µM) | EC50 (XF498): 0.08 µg/mL (≈ 0.147 µM) | EC50 (HCT-15): 0.04 µg/mL (≈ 0.0736 µM)
